Laboratory results: patent US6844443B2, “Benzimidazole derivatives, their production and use” (Takeda Pharmaceutical Company, Ltd., priority 1990, dated 2005)

Assays:
[1] = target: T1, A II receptor (Bos taurus, UniProt P25104); experiment: Inhibition of binding of angiotensin II to angiotensin receptor (radioreceptor assay); design: species or system bovine; Radioreceptor Assay 1 × 10^−7M / Radioreceptor Assay 1 × 10^−6M: unit not given here; conditions: for inhibition at 1 µM / inhibition at 0.1 µM: 1 h; for inhibition at 1 µM / Radioreceptor Assay 1 × 10^−6M / Radioreceptor Assay 1 × 10^−7M: inhibition of 125I-A II binding, bovine adrenal cortex membrane fraction; for inhibition at 1 µM / Radioreceptor Assay 1 × 10^−6M: compound 1 × 10^−6M; for inhibition at 0.1 µM: read-out: Radioreceptor Assay 1 × 10^−7M; for Radioreceptor Assay 1 × 10^−7M: compound 1 × 10^−7M
T1 construct: An A II receptor membrane fraction was prepared from bovine adrenal cortex; from tissue; host or cells: bovine adrenal cortex membrane fraction
T1 sequence (P25104 1-359): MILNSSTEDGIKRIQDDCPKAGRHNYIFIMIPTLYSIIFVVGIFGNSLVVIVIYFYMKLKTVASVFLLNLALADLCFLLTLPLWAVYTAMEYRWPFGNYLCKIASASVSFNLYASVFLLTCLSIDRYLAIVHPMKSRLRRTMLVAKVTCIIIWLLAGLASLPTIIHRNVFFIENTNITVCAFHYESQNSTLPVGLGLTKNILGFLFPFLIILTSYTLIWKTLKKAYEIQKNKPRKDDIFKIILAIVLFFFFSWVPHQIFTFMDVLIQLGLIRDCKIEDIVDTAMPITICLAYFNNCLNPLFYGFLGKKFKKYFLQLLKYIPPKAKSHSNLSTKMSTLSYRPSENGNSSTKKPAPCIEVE
Description: An experiment of inhibition on the binding of angiotensin II (A II) to A II receptor was conducted by modifying the method of Douglas et al. [Endocrinology, 102, 685-696 (1978)]. An A II receptor membrane fraction was prepared from bovine adrenal cortex.
The compound of the present invention (10 ^−6M or 10^−7M) and ^125I-angiotensin II (^125I-A II) (1.85 kBq/50 μl ) were added to the receptor membrane fraction, and the mixture was incubated at room temperature for one hour. The receptor-bound and free ^125I-A II were separated through a filter (Whatman GF/B filter), and the radioactivity of ^125I-A II bound to the receptor was measured.

[2] = test system: A II-induced pressor action; experiment: Inhibitory effect on pressor action of A II after oral administration; type: in vivo, Jcl: SD rats; conditions: for inhibition in vivo at 3 mg/kg: Rattus norvegicus, po, read-out: Pressor Response to A II (p.o.) 3 mg/kg; for Pressor Response to A II (p.o.) 3 mg/kg: percent inhibition of pressor action of i.v. A II (100 ng/kg), 3 mg/kg p.o., rats
Description: Jcl: SD rats (9 week old, male) were employed. On the previous day of the experiment, these animals were applied with cannulation into the femoral artery and vein under anesthesia with pentobarbital Na. The animals were fasted but allowed to access freely to drinking water until the experiment was started. Just on the day of conducting the experiment, the artery cannula was connected with a blood-pressure transducer, and the average blood pressure was recorded by means of polygraph. Before administration of the drug, the pressor action due to intravenous administration of A II (100 ng/kg) as the control was measured. The drugs were orally administered, then, at each point of the measurement, A II was administered intravenously, and the pressor action was similarly measured. By comparing the pressor action before and after administration of the drug, the percent inhibition by the drug on A II-induced pressor action was evaluated.

| melting point | inhibition at 1 µM [1] | inhibition at 0.1 µM [1] | Radioreceptor Assay 1 × 10^−6M [1] | Radioreceptor Assay 1 × 10^−7M [1] | Compound | inhibition in vivo at 3 mg/kg [2] | Pressor Response to A II (p.o.) 3 mg/kg [2] |
| --- | --- | --- | --- | --- | --- | --- | --- |
| 140 to 142 °C | – | – | – | – | CCOc1nc2cccc(C(=O)OCOC(=O)C3CCCCC3)c2n1Cc1ccc(-c2ccccc2-c2nnn[nH]2)cc1 [Working Example 58, Cyclohexylcarbonyloxymethyl 2-ethoxy-1-[[2′-(1 H-tetrazol-5-yl)biphenyl-4-yl]methyl]benzimidazole-7-carboxylate] | – | – |
| – | – | – | 61 | 19 | CCNc1nc2cccc(C(=O)OC(C)OC(=O)OC3CCCCC3)c2n1Cc1ccc(-c2ccccc2-c2nnn[nH]2)cc1 (stereo not shown) [Example 63] | – | +++ (+++ ≧ 70%) |
| – | 92% | 63% | – | – | CCOc1nc2cccc(C(=O)OCOC(C)=O)c2n1Cc1ccc(-c2ccccc2-c2nnn[nH]2)cc1 [Example 50] | ≥ 70% | – |
| 85 to 87 °C | – | – | – | – | CCOC(=O)OC(C)OC(=O)c1cccc2nc(OCC)n(Cc3ccc(-c4ccccc4-c4nnn[nH]4)cc3)c12 (stereo not shown) [Working Example 54, 1-(Ethoxycarbonyloxy)ethyl 2-ethoxy-1-[[2′-(1 H-tetrazol-5-yl)-biphenyl-4-yl]methyl]benzimidazole-7-carboxylate] | – | – |
| – | 87% | 48% | – | – | CCNc1nc2cccc(C(=O)OCOC(=O)C(C)(C)C)c2n1Cc1ccc(-c2ccccc2-c2nnn[nH]2)cc1 [Example 62] | ≥ 70% | – |
| 146 to 147 °C | – | – | – | – | CCOc1nc2cccc(C(=O)OCOC(=O)/C=C/c3ccccc3)c2n1Cc1ccc(-c2ccccc2-c2nnn[nH]2)cc1 [Working Example 60, (E)-cinnamoyloxymethyl 2-ethoxy-1-[[2′-(1 H-tetrazol-5-yl)biphenyl-4-yl]methyl]benzimidazole-7-carboxylate] | – | – |
| – | 79% | 41% | – | – | CNc1nc2cccc(C(=O)O)c2n1Cc1ccc(-c2ccccc2-c2nnn[nH]2)cc1 [Example 57] | – | – |
| 149 to 152 °C | – | – | – | – | CCNc1nc2cccc(C(=O)OC(C)OC(=O)OC3CCCCC3)c2n1Cc1ccc(-c2ccccc2-c2nnn[nH]2)cc1 (stereo not shown) [Working Example 63, 1-(Cyclohexyloxycarbonyloxy)ethyl 2-ethylamino-1-[[2′-(1 H-tetrazol-5-yl)biphenyl-4-yl]methyl]benzimidazole-7-carboxylate] | – | – |
| – | 85% | 55% | – | – | CCOc1nc2cccc(C(=O)OCOC(=O)C(C)C)c2n1Cc1ccc(-c2ccccc2-c2nnn[nH]2)cc1 [Example 53] | ≥ 70% | – |
| – | 92% | 67% | – | – | CCCNc1nc2cccc(C(=O)O)c2n1Cc1ccc(-c2ccccc2-c2nnn[nH]2)cc1 [Example 48] | 50 to 70% | – |
| – | 84% | 55% | – | – | CCOc1nc2cccc(C(=O)OCOC(=O)C3CCCCC3)c2n1Cc1ccc(-c2ccccc2-c2nnn[nH]2)cc1 [Example 58] | ≥ 70% | – |
| – | 89% | 54% | – | – | CCOc1nc2cccc(C(=O)OCOC(=O)C3CCCC3)c2n1Cc1ccc(-c2ccccc2-c2nnn[nH]2)cc1 [Example 61] | ≥ 70% | – |
| – | 91% | 63% | – | – | CCOc1nc2cccc(C(=O)OC(C)OC(C)=O)c2n1Cc1ccc(-c2ccccc2-c2nnn[nH]2)cc1 (stereo not shown) [Example 55] | ≥ 70% | – |
| – | 84% | 48% | – | – | CCCC(=O)OCOC(=O)c1cccc2nc(OCC)n(Cc3ccc(-c4ccccc4-c4nnn[nH]4)cc3)c12 [Example 52] | ≥ 70% | – |
| – | – | – | 81 | 44 | CCOc1nc2cccc(C(=O)OCOC(=O)/C=C/c3ccccc3)c2n1Cc1ccc(-c2ccccc2-c2nnn[nH]2)cc1 [Example 60] | – | +++ (+++ ≧ 70%) |
| – | 91% | 66% | – | – | CCOc1nc2cccc(C(=O)OCc3oc(=O)oc3C)c2n1Cc1ccc(-c2ccccc2-c2nnn[nH]2)cc1 [Example 49] | ≥ 70% | – |
| – | – | – | 96 | 84 | CCNc1nc2cccc(C(=O)O)c2n1Cc1ccc(-c2ccccc2-c2nnn[nH]2)cc1 [Example 47] | – | +++ (+++ ≧ 70%) |
| – | 84% | 44% | – | – | CCOc1nc2cccc(C(=O)OCOC(=O)CC)c2n1Cc1ccc(-c2ccccc2-c2nnn[nH]2)cc1 [Example 51] | ≥ 70% | – |
| – | 81% | 42% | – | – | CCOC(=O)OC(C)OC(=O)c1cccc2nc(OCC)n(Cc3ccc(-c4ccccc4-c4nnn[nH]4)cc3)c12 (stereo not shown) [Example 54] | ≥ 70% | – |

Second part, the molecule before the results:

| Compound | melting point | inhibition at 1 µM [1] | inhibition at 0.1 µM [1] | Radioreceptor Assay 1 × 10^−6M [1] | Radioreceptor Assay 1 × 10^−7M [1] | inhibition in vivo at 3 mg/kg [2] | Pressor Response to A II (p.o.) 3 mg/kg [2] |
| --- | --- | --- | --- | --- | --- | --- | --- |
| CCOc1nc2cccc(C(=O)OC)c2n1Cc1ccc(-c2ccccc2-c2nnn[nH]2)cc1 [Example 39] | – | 89% | 58% | – | – | ≥ 70% | – |
| CCOc1nc2cccc(C(=O)OCOC(=O)C(C)(C)C)c2n1Cc1ccc(-c2ccccc2-c2nnn[nH]2)cc1 [Example 43] | – | – | – | 94 | 74 | – | +++ (+++ ≧ 70%) |
| CCCOc1nc2cccc(C(=O)OCC)c2n1Cc1ccc(-c2ccccc2-c2nnn[nH]2)cc1 [Example 30] | – | 48% | 16% | – | – | ≥ 70% | – |
| CCCNc1nc2cccc(C(=O)OCC)c2n1Cc1ccc(-c2ccccc2-c2nnn[nH]2)cc1 [Example 41] | – | 57% | 45% | – | – | – | – |
| CCOC(=O)c1cccc2nc(SCC)n(Cc3ccc(-c4ccccc4-c4nnn[nH]4)cc3)c12 [Example 34] | – | 54% | 17% | – | – | ≥ 70% | – |
| CCOc1nc2cccc(C(=O)OC(C)OC(=O)OC3CCCCC3)c2n1Cc1ccc(-c2ccccc2-c2nnn[nH]2)cc1 (stereo not shown) [Example 44] | – | – | – | 77 | 32 | – | +++ (+++ ≧ 70%) |
| COC(=O)c1cccc2nc(OC)n(Cc3ccc(-c4ccccc4-c4nnn[nH]4)cc3)c12 [Example 45] | – | 67% | 17% | – | – | ≥ 70% | – |
| COc1nc2cccc(C(=O)O)c2n1Cc1ccc(-c2ccccc2-c2nnn[nH]2)cc1 [Example 46] | – | 88% | 66% | – | – | ≥ 70% | – |
| CCOC(=O)c1cccc2nc(SC)n(Cc3ccc(-c4ccccc4-c4nnn[nH]4)cc3)c12 [Example 33] | – | 26% | 2% | – | – | 30 to 50% | – |
| CCOC(=O)c1cccc2nc(OCC)n(Cc3ccc(-c4ccccc4-c4nnn[nH]4)cc3)c12 [Example 28] | – | 82% | 46% | – | – | ≥ 70% | – |
| CSc1nc2cccc(C(=O)O)c2n1Cc1ccc(-c2ccccc2-c2nnn[nH]2)cc1 [Example 36] | – | 82% | 51% | – | – | ≥ 70% | – |
| CCCOc1nc2cccc(C(=O)O)c2n1Cc1ccc(-c2ccccc2-c2nnn[nH]2)cc1 [Example 31] | – | 79% | 40% | – | – | ≥ 70% | – |
| CCSc1nc2cccc(C(=O)O)c2n1Cc1ccc(-c2ccccc2-c2nnn[nH]2)cc1 [Example 37] | – | 80% | 41% | – | – | ≥ 70% | – |
| CCOc1nc2cccc(C(=O)O)c2n1Cc1ccc(-c2ccccc2-c2nnn[nH]2)cc1 [Example 29] | – | 91% | 61% | – | – | ≥ 70% | – |
| CCCSc1nc2cccc(C(=O)O)c2n1Cc1ccc(-c2ccccc2-c2nnn[nH]2)cc1 [Example 38] | – | 50% | 6% | – | – | ≥ 70% | – |
| CCCSc1nc2cccc(C(=O)OCC)c2n1Cc1ccc(-c2ccccc2-c2nnn[nH]2)cc1 [Example 35] | – | 32% | 7% | – | – | – | – |
